Converted amounts (≈) assume the structure as drawn.
Assays:
[1] = Lipophilicity, log D of compound at pH 7.4; conditions: buffer
[2] = Partition coefficient, log P of the compound; conditions: octanol/water
[3] = tested on: Candida albicans; assay: Antifungal activity against Candida albicans; format: functional
[4] = organism: Homo sapiens; assay: Selectivity index, ratio of IC50 for CYP11B1 (unknown origin) to ratio of IC50 for CYP11B2 (unknown origin)
[5] = biological target: T1, CYP11B1 (Homo sapiens, UniProt P15538); assay: Inhibition of CYP11B1 (unknown origin)
T1 sequence (P15538 whole entry): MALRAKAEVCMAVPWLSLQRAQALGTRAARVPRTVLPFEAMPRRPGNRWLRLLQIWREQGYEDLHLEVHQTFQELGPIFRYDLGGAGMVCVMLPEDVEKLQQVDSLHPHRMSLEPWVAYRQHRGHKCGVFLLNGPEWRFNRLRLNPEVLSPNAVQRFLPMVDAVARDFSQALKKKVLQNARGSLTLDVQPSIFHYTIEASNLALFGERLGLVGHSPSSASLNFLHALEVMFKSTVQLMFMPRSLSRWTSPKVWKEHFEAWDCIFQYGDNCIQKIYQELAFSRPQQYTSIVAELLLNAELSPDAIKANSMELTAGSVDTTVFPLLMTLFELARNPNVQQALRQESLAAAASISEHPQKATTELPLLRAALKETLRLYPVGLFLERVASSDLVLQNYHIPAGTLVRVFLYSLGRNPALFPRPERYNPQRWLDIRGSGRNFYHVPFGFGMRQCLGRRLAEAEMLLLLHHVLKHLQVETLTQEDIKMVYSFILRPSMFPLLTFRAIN

[6] = biological target: T2, Cytochrome P450 11B2, mitochondrial (Homo sapiens, UniProt P19099); assay: Inhibition of human CYP11B2 expressed in hamster fibroblasts using deoxycorticosterone as substrate
T2 sequence (P19099 whole entry): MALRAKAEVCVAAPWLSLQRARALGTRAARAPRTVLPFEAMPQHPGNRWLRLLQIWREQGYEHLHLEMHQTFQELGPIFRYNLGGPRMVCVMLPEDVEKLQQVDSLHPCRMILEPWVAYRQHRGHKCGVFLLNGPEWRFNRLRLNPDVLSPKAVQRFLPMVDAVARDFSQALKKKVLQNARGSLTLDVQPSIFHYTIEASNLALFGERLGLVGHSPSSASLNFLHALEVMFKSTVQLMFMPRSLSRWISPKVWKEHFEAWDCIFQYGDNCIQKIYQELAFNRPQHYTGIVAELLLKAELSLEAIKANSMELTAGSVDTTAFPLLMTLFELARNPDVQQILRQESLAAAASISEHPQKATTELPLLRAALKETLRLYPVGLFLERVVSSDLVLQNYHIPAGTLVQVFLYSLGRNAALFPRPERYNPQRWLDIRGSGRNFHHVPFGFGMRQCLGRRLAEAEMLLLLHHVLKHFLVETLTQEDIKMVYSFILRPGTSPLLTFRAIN

[7] = biological target: T3, Cytochrome P450 11B1, mitochondrial (Homo sapiens, UniProt P15538); assay: Inhibition of human CYP11B1 expressed in hamster fibroblasts using deoxycorticosterone as substrate
T3 sequence (P15538 whole entry): T1 sequence (P15538 whole entry)

[8] = organism: Homo sapiens; assay: Selectivity index, ratio of IC50 for human CYP11B1 expressed in hamster fibroblasts to ratio of IC50 human CYP11B2 expressed in hamster fibroblasts

SMILES | MIC90 [3] [µg/mL] | Ratio IC50 [4] | IC50 [5] [µM] | other results
Clc1ccccc1C(c1ccccc1)(c1ccccc1)n1ccnc1 [CLOTRIMAZOLE] | 1 (≈ 2.9 µM) | – | – | logD [1]: 5.05; logP [2]: 5.05
Fc1cc2c(cc1-c1cccnc1)CCc1nncn1-2 | – | 32 | 7.9 | –
Cc1nnc2n1-c1cc(F)c(-c3cccnc3)cc1CC2 | – | 96 | 12.6 | –
Cc1nnc2n1-c1c(F)cc(-c3cccnc3)cc1CC2 | – | 272 | 17 | –
CC(=O)N1CCN(c2ccc(OCC3COC(Cn4ccnc4)(c4ccc(Cl)cc4Cl)O3)cc2)CC1 (stereo not given) [KETOCONAZOLE] | 0.25 (≈ 0.47 µM) | – | – | –
CCC(=O)N1CCc2cc(-c3cccnc3)ccc21 | – | – | – | IC50 [6]: 0.228 µM; IC50 [7]: 4.74 µM; Ratio IC50 [8]: 21
Clc1ccc(COC(Cn2ccnc2)c2ccc(Cl)cc2Cl)cc1 (stereo not given) [ECONAZOLE] | 2 (≈ 5.24 µM) | – | – | logD [1]: 5.25; logP [2]: 5.25
OC(Cn1cncn1)(Cn1cncn1)c1ccc(F)cc1F [FLUCONAZOLE] | 1 (≈ 3.27 µM) | – | – | –
Fc1cc(-c2cccnc2)cc2c1-n1cnnc1CC2 | – | 94 | 16.1 | –
Clc1ccc(COC(Cn2ccnc2)c2ccc(Cl)cc2Cl)c(Cl)c1 (stereo not given) [MICONAZOLE] | 0.5 (≈ 1.2 µM) | – | – | –

— ChEMBL document CHEMBL4433254 (Bioorg Med Chem Lett, 2019)
